Measured values as given in patent US20240398824A1, “Inhibition Of Rip Kinases For Treating Neurodegenerative Disorders” (The Johns Hopkins University, priority 2018, published 2024).

System: BV-2 microglia
Experiment: Real-time PCR of C1q, IL-6 and TNFα in AβO-activated BV-2 microglia
Assay type: cell-based
Set-up: key to mRNA levels of C1q / mRNA levels of IL-6 / mRNA levels of TNFα: relative expression normalized to GAPDH by 2^-ΔΔCt; PBS = 1
Description: Synthetic Abeta1-42 oligomers were generated as previously described (PMID: 27834631). Hydroxyfluroisopropanol (HFIP)-treated synthethic Abeta1-42 peptides (rPeptide, Bogart, GA, USA) were dissolved in dimethylsulfoxide (DMSO) and further diluted in phosphate-buffered saline (PBS) to obtain a 250 μM stock solution. The stock solution was incubated at 4° C. for at least 24 hours and stored at −80° C. until use. Before use, the solution was centrifuged at 12,000 g for 10 minutes and the supernatant was used as an oligomeric Aβ.
BV-2 microglial cells were cultured in DMEM media. 10^6 of BV-2 microglia in 6 well plate were treated with 2.5 μM of Abeta for 4 hrs. Total RNA from cultured cells was extracted with a RNA isolation kit (Qiagen, Valencia, CA, USA) following manufacturer's instructions. RNA concentration was measured spectrophotometrically using a NanoDrop 2000 (Thermo scientific). Subsequently, 2 μg of total RNA was reverse transcribed to cDNA using the High-Capacity cDNA Reverse Transcription System (Life Technologies, Grand Island, NY, USA). Comparative qPCR was performed using fast SYBR Green Master Mix (Life Technologies) and steponeplus real-time pcr system (Applied Biosystems, Foster City, CA, USA). The expression levels of target genes were normalized to the expression of GAPDH and calculated based on the comparative cycle threshold Ct method^−ΔΔ(2) Ct. (n=3)
To examine the effect of RIPK2 inhibition, 10^6 of BV-2 microglia in 6 well plate were preincubated with DMSO, GSK583 (1 μM, Medchemexpress), OD361 (1 μM, Calbiochem), or Sorafenib (1 μM) for one hour. For mRNA analysis, 5 μM of AβO was treated additional for 4 hours.

[1] = inhibitor 1 μM pretreatment, AβO 5 μM, in words

## CC(C)(C)S(=O)(=O)c1ccc2nccc(Nc3n[nH]c4ccc(F)cc34)c2c1 [GSK583, 6-(tert-butylsulfonyl)-N-(5-fluoro-1H-indazol-3-yl) quinolin-4-amine]
BV-2 microglia preincubated 1 h with inhibitor 1 μM, then AβO 5 μM 4 h, PBS = 1 ± 0.08, Abeta alone 12.53 ± 0.59, ±SD
  mRNA levels of IL-6: 4.89 ± 0.23
BV-2 microglia preincubated 1 h with inhibitor 1 μM, then AβO 5 μM 4 h, PBS = 1 ± 0.13, Abeta alone 3.7 ± 0.06, ±SD
  mRNA levels of C1q: 0.87 ± 0.14
BV-2 microglia preincubated 1 h with inhibitor 1 μM, then AβO 5 μM 4 h, PBS = 1 ± 0.16, Abeta alone 16.19 ± 3.21, ±SD
  mRNA levels of TNFα: 3.23 ± 0.27
[1]
  microglial activation: blocked microglial activation
  release of multiple inflammatory mediators including C1q, IL-6 and TNFα: significantly reduced
